This note sets out measurements from patent US20140371244A1, “METHOD FOR TREATING PROSTATE CANCER BY USE OF PHARMACEUTICAL COMPOSITION CONTAINING A3 ADENOSINE RECEPTOR AGONIST” (priority 2009, published 2014).

As a reminder, the IC50 is the concentration needed to halve the response being measured. Higher therefore signals weaker potency.

For data set [1], the system named is human colorectal cancer HCT 116 cells. The experiment in a line: SRB assay, growth of HCT 116 cells. It is filed as cell-based. The note with it: 72 hours; for growth of HCT 116 cells: 100, 50, 25 and 12.5 μM; for IC50: SRB. How it is done:
In order to compare the inhibitory effect of thio-Cl-IB-MECA of the present invention on the inhibition of human colorectal cancer HCT 116 cells with the effects of other A3 adenosine receptor agonists, IB-MECA and Cl-IB-MECA, a sulforhodamine B (SRB) assay was performed.
Specifically, 10 μL of a solution of thio-Cl-IB-MECA in 10% dimethylsulfoxide (DMSO) was loaded in each well of a 96-well plate in triplicate at concentrations of 100, 50, 25 and 12.5 μM, thus making a test plate. Cells were diluted to a density of 5×10^4 cells/ml with 10% FBS-containing RPMI 1640 medium supplemented with antibiotics-antimycotics, and 190 μL of the cell suspension was added to each well so as to reach a total volume of 200 μL and was cultured in a 5% CO2 incubator at 37° C. for 3 days. At the same time, 190 μL of the same cell suspension was loaded into each of 16 wells or more of a fresh 96-well plate containing no sample (thio-Cl-IB-MECA) and was cultured in a 5% CO2 incubator at 37° C. for 30 minutes, thereby determining reference date. After the culture, 50 μL of 50% trichloroacetic acid (TCA) was added to each well, and the cells were fixed by culture at 4° C. for 1 hour. Then, the well plate was washed five times with tap water and dried. 100 μL of a 1% acetic acid solution containing […] sulforhodamine B (SRB) was added to each well to stain the cells, and the well plate was allowed to stand at room temperature for 1 hour. After the well plate has been washed five times with 1% acetic acid and sufficiently dried, 200 μL of 100 mM Tris-base was added to each well, and the bound staining liquid was dissolved and sufficiently shaken in a shaker. Then, the absorbance at 515 nm was measured using an ELISA microplate reader. Based on the measured absorbance, the cell viability of the test group relative to the control group was calculated using equation 2 above. Based on the viability at each concentration, the IC50 value of the test sample was calculated using TableCurve program.
In the cases of IB-MECA or Cl-IB-MECA, the viability of cancer cells was examined in the same manner as the case of thio-Cl-IB-MECA.
A general note: Sulforhodamine B stains cellular protein and so reports cell mass.

In data set [2] the test system is PC-3 (androgen receptor independent). Nature of the data set: SRB assay, growth of PC-3 cells. Conditions: for IC50: SRB, 3 days. It is filed as cell-based, human. How it is done:
(§1) In order to examine the inhibitory effects on the growth of the human prostate cancer cells LNCaP (androgen receptor dependent) and PC-3 (androgen receptor independent), a sulforhodamine B (SRB) assay was performed.
(§2) 10 μL of a solution of thio-Cl-IB-MECA in 10% dimethylsulfoxide (DMSO) was loaded in each well of a 96-well plate in triplicate at concentrations of 50, 25, 12.5 and 6.25 μM, thus making a test plate. Cells were diluted to a density of 6×10^4 cells/ml with 10% FBS-containing RPMI 1640 medium supplemented with antibiotics-antimycotics, and 190 μL of the cell suspension was added to each well so as to reach a total volume of 200 μL and was cultured in a 5% CO2 incubator at 37° C. for 3 days. At the same time, 190 μL of the same cell suspension was loaded into each of 16 wells or more of a fresh 96-well plate containing no sample (thio-Cl-IB-MECA) and was cultured in a 5% CO2 incubator at 37° C. for 30 minutes, thereby determining reference date. After the culture, 50 μL of 50% trichloroacetic acid (TCA) was added to each well, and the cells were fixed by culture at 4° C. for 1 hour. Then, the well plate was washed five times with tap water and dried. 100 μL of 1% acetic acid solution containing […] sulforhodamine B (SRB) was added to each well to stain the cells, and the well plate was allowed to stand at room temperature for 1 hour. After the well plate has been washed five times with 1% acetic acid and sufficiently dried, 200 μL of 100 mM Tris-base was added to each well, and the bound staining liquid was dissolved and sufficiently shaken in a shaker. Then, the absorbance at 515 nm was measured using an ELISA microplate reader. Based on the measured absorbance, the cell viability of the test group relative to the control group was calculated using the following equation 2, and based on the viability at each concentration, the IC50 value of the sample was calculated using TableCurve program: […]

Data set [3] relates to LNCaP (androgen receptor dependent). Nature of the data set: SRB assay, growth of LNCaP cells. It is filed as cell-based, human. The note with it: for IC50: SRB, 3 days. How it is done: as §1, §2
Data set [4] deals with human colorectal cancer HCT 116 cells. The experiment in a line: Anticancer activity in nude mice transplanted with HCT 116 cells. It is filed as in vivo, nude mice (Balb/c-nu/nu mice). The note with it: for side effects (such as a change in bodyweight) during the test period: 0.02, 0.2 and 2 mg/kg orally for 21 days. How it is done: HCT 116 cells were prepared at a concentration of 2×10^6 cells/200 μl (RPMI) and administered subcutaneously into the right frank of 6-week-old female nude mice (Balb/c-nu/nu mice). The tumor size was measured with calipers, and the tumor size reached about 100 mm^3, 20 mice having substantially the same tumor size were divided into a control group and three sample-treated groups. The three sample-treated group were administered orally with IB-MECA at doses of 0.02, 0.2 and 2 mg/kg, respectively, for 21 days. In the control group and the sample-treated groups, the bodyweight was measured once every week, and the tumor size was measured at intervals of 3-4 days. The tumor volume was measured using equation 3 above. In the equation, a represents the longer diameter of the tumor, b represents the shorter diameter of the tumor, and c represents the height of the tumor.
Anticancer activity was measured by an animal test in the same manner as Example 20, except that 6-week-old female nude mice were administered with Cl-IB-MECA in place of IB-MECA as a sample.
Anticancer activity was measured by an animal test in the same manner as Example 20, except that 6-week-old female nude mice were administered with thio-Cl-IB-MECA in place of IB-MECA as a sample.

Turning to `CNC(=O)[C@H]1S[C@@H](n2cnc3c(NCc4cccc(I)c4)nc(Cl)nc32)[C@H](O)[C@@H]1O` [thio-Cl-IB-MECA, 2-chloro-N^6-(3-iodobenzyl)-4′-thioadenosine-5′-N-methyluronamide], in data set [1], the “growth of HCT 116 cells” value was “concentration-dependently inhibited the growth”. Also, the half-inhibitory concentration (IC50) was determined as 37.5 µM in data set [1], 20.4 µM in data set [2] and 18.6 µM in data set [3]. For the same molecule, the “inhibition rate of tumor growth” value in data set [4] (0.02 mg/kg orally for 21 days) turned out to be 16.1%; in data set [4] (0.2 mg/kg orally for 21 days) it was 54.4%; in data set [4] (2 mg/kg orally for 21 days), 62.1%. Besides, the “side effects (such as a change in bodyweight) during the test period” value in data set [4] is reported as “survived healthfully without particular side effects”.

`CNC(=O)[C@H]1O[C@@H](n2cnc3c(NCc4cccc(I)c4)ncnc32)[C@H](O)[C@@H]1O` [IB-MECA]: in data set [1], the “growth of HCT 116 cells” value is on record as “concentration-dependently inhibited the growth”. The IC50 is 62.4 µM in data set [1], 97.1 µM in data set [2] and 54.2 µM in data set [3]. Besides, in data set [2] (50 μM (highest concentration)), the “cell viability in PC-3” value is reported as 63%. Besides, in data set [3] (50 μM (highest concentration)), the “cell viability in LNCaP” value is listed as 54%. Also, the “inhibition rate of tumor growth” value in data set [4] (0.02 mg/kg orally for 21 days) came to 20.7%; in data set [4] (0.2 mg/kg orally for 21 days), 48.7%; in data set [4] (2 mg/kg orally for 21 days), 58.6%. Moreover, the “side effects (such as a change in bodyweight) during the test period” value in data set [4] was “survived healthfully without particular side effects”.
